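Test compounds were applied to cells in 96-well plates for 48 hours at 5 doses. Here, GI50 denotes the concentration required for 50% inhibition of growth. TGI: concentration producing complete growth inhibition.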
Tests used:
Assay in all cases: NCI-60 cell line screen, 48 h
[1] = test system: SN12C renal
[2] = test system: SK-MEL-28 melanoma
[3] = test system: DU-145 prostate
[4] = test system: NCI/ADR-RES ovarian
[5] = test system: A549 NSCLC
[6] = test system: T-47D breast
[7] = test system: HOP-92 NSCLC
[8] = test system: A498 renal
[9] = test system: OVCAR-3 ovarian
[10] = test system: TK-10 renal
[11] = test system: SF-539 CNS
[12] = test system: HCT-15 colon
[13] = test system: HS 578T breast
[14] = test system: SNB-75 CNS
[15] = test system: CAKI-1 renal
[16] = test system: EKVX NSCLC
[17] = test system: OVCAR-8 ovarian
[18] = test system: HL-60(TB) leukemia
[19] = test system: M14 melanoma
[20] = test system: HOP-62 NSCLC
[21] = test system: SW-620 colon
[22] = test system: MCF7 breast
[23] = test system: NCI-H522 lung
[24] = test system: U251 CNS
[25] = test system: SR leukemia
[26] = test system: MALME-3M melanoma
[27] = test system: UO-31 renal
[28] = test system: 786-0 renal
[29] = test system: NCI-H226 lung
[30] = test system: SNB-19 CNS
[31] = test system: UACC-62 melanoma
[32] = test system: COLO 205 colon
[33] = test system: KM12 colon
[34] = test system: RPMI-8226 leukemia
[35] = test system: OVCAR-4 ovarian
[36] = test system: HCT-116 colon
[37] = test system: CCRF-CEM leukemia
[38] = test system: BT-549 breast
[39] = test system: ACHN renal
[40] = test system: OVCAR-5 ovarian
[41] = test system: MDA-MB-435
[42] = test system: IGROV1 ovarian
[43] = test system: SK-OV-3 ovarian
[44] = test system: MOLT-4 leukemia
[45] = test system: SF-295 CNS
[46] = test system: SK-MEL-2 melanoma
[47] = test system: K-562 leukemia
[48] = test system: SK-MEL-5 melanoma
[49] = test system: NCI-H460 lung
[50] = test system: RXF 393 renal
[51] = test system: SF-268 CNS
[52] = test system: MDA-MB-231 breast
[53] = test system: NCI-H23 lung
[54] = test system: PC-3 prostate
[55] = test system: UACC-257 melanoma
[56] = test system: LOX IMVI melanoma
[57] = test system: HT29 colon
[58] = test system: HCC-2998 colon

Compound: CCC(=O)NC1=C(Cl)C(=O)C(NC(=O)CC)=C(Cl)C1=O
- GI50 [1]: 17.7 µM
- TGI [1]: 31.9 µM
- GI50 [2]: 10.5 µM
- TGI [2]: 23.2 µM
- GI50 [3]: 9.49 µM
- TGI [3]: 22.3 µM
- GI50 [4]: 24 µM
- TGI [4]: 58.6 µM
- GI50 [5]: 29.4 µM
- TGI [5]: > 61.8 µM
- GI50 [6]: 5.51 µM
- TGI [6]: 14.2 µM
- GI50 [7]: 9.98 µM
- TGI [7]: 28.8 µM
- GI50 [8]: 38.2 µM
- TGI [8]: > 72.6 µM
- GI50 [9]: 5.14 µM
- TGI [9]: 9.56 µM
- GI50 [10]: 6.91 µM
- TGI [10]: 15.4 µM
- GI50 [11]: > 44.4 µM
- TGI [11]: > 58.2 µM
- GI50 [12]: 9.02 µM
- TGI [12]: 27.1 µM
- GI50 [13]: 26.6 µM
- TGI [13]: 69.7 µM
- GI50 [14]: 13.7 µM
- TGI [14]: 18.1 µM
- GI50 [15]: 5.98 µM
- TGI [15]: 10.8 µM
- GI50 [16]: 18.1 µM
- TGI [16]: 33.1 µM
- GI50 [17]: 37.4 µM
- TGI [17]: > 60.6 µM
- GI50 [18]: 2.42 µM
- TGI [18]: > 23.7 µM
- GI50 [19]: 15.2 µM
- TGI [19]: 29.9 µM
- GI50 [20]: > 47.7 µM
- TGI [20]: > 65.1 µM
- GI50 [21]: 5.77 µM
- TGI [21]: 11 µM
- GI50 [22]: 9.51 µM
- TGI [22]: 28.3 µM
- GI50 [23]: 5.86 µM
- TGI [23]: 10.7 µM
- GI50 [24]: > 41.9 µM
- TGI [24]: > 56 µM
- GI50 [25]: 8.13 µM
- TGI [25]: > 23.2 µM
- GI50 [26]: 5.17 µM
- TGI [26]: 10.1 µM
- GI50 [27]: 5.97 µM
- TGI [27]: 11.4 µM
- GI50 [28]: 18.7 µM
- TGI [28]: 33.4 µM
- GI50 [29]: > 45.6 µM
- TGI [29]: > 62.1 µM
- GI50 [30]: > 41 µM
- TGI [30]: > 55.7 µM
- GI50 [31]: 29.7 µM
- TGI [31]: > 57.3 µM
- GI50 [32]: 5.97 µM
- TGI [32]: 10.8 µM
- GI50 [33]: > 43.9 µM
- TGI [33]: > 57.8 µM
- GI50 [34]: 8.98 µM
- TGI [34]: 30.4 µM
- GI50 [35]: 14.4 µM
- TGI [35]: 29 µM
- GI50 [36]: 6.89 µM
- TGI [36]: 17.3 µM
- GI50 [37]: 3.04 µM
- TGI [37]: > 21.6 µM
- GI50 [38]: 16 µM
- TGI [38]: 29.7 µM
- GI50 [39]: 5.6 µM
- TGI [39]: 10.9 µM
- GI50 [40]: 20.6 µM
- TGI [40]: 40.5 µM
- GI50 [41]: 18.9 µM
- TGI [41]: 33.8 µM
- GI50 [42]: 20.6 µM
- TGI [42]: 37 µM
- GI50 [43]: > 73.1 µM
- TGI [43]: > 100 µM
- GI50 [44]: 9.55 µM
- TGI [44]: > 21.9 µM
- GI50 [45]: > 39.2 µM
- TGI [45]: > 53.8 µM
- GI50 [46]: 20.6 µM
- TGI [46]: 39.5 µM
- GI50 [47]: 11.8 µM
- TGI [47]: > 27.9 µM
- GI50 [48]: 17.6 µM
- TGI [48]: 31.7 µM
- GI50 [49]: > 45.7 µM
- TGI [49]: > 63.3 µM
- GI50 [50]: 6.64 µM
- TGI [50]: 12.8 µM
- GI50 [51]: 19.7 µM
- TGI [51]: 34.2 µM
- GI50 [52]: 16.9 µM
- TGI [52]: 31.2 µM
- GI50 [53]: 18.5 µM
- TGI [53]: 40.8 µM
- GI50 [54]: 8.5 µM
- TGI [54]: 21 µM
- GI50 [55]: 14.8 µM
- TGI [55]: 28.3 µM
- GI50 [56]: 16.3 µM
- TGI [56]: 31.2 µM
- GI50 [57]: 25.2 µM
- TGI [57]: 53.3 µM
- GI50 [58]: 17.4 µM
- TGI [58]: 32.1 µM
